According to patent US8637510B2, “Morpholinothiazoles as alpha 7 positive allosteric modulators” (Janssen Pharmaceutica NV, priority 2009, dated 2014):

Target: T1, human alpha 7-wt nAChR (Homo sapiens, UniProt P36544)
T1 construct: expressed in transfected cells
Experiment: Ca2+ flux imaging (FDSS) (Protocol B)
Assay type: cell-based
Details: for EC50: potentiation of 100 μM choline, compounds 0.01 μM to 30 μM, read-out: a7-PAM-G_[33]_pEC50 pEC50 (converted); for Emax: efficacy of 100 μM choline defined as 100% in the absence of a PAM, read-out: a7-PAM-G_[33]_Eff_Curve_FI % Efficacy
Description: Ca^2+ Flux Imaging (FDSS) (Protocol B)
• Hanks buffered saline solution (HBSS, Invitrogen, Belgium), supplemented with 10 mM HEPES (Invitrogen, Belgium), CaCl2 to a final concentration of 5 mM, 0.1% Bovine serum albumin (Sigma-Aldrich NV, Belgium). b) Calcium-Sensitive Dye—Fluo-4AM • Fluo-4AM (Molecular Probes, USA) was dissolved in DMSO containing 10% Pluronic acid (Molecular Probes, USA) to give a stock solution which was diluted in assay buffer supplemented with 5 mM probenicid (Sigma, Aldrich NV, Belgium) to give a final concentration of 2 μM. c) 384-Well Plates • Black-sided, transparent bottomed 384 well plates coated with poly-D-lysine, PDL pre-coated (Corning, Incorporated, USA) d) Calcium Flux Measurement • A Functional drug screening system (FDSS, Hamamatsu) was used to measure intracellular free-calcium flux signals. Method
Monolayers of human alpha 7-wt nAChR-expressing cells were grown in black-sided, transparent bottomed 384 well plates coated with PDL for 24 hours prior to loading with a fluorescent calcium indicator, fluo-4AM for up to 120 minutes.
PAM activity was detected in real time by applying the compounds to be tested to the loaded cells along with an alpha 7 nicotinic receptor agonist during constant monitoring of cellular fluorescence in a FDSS. Compounds giving peak fluorescent responses greater than the response due to agonist alone, were considered to be alpha 7 nAChR PAMs. The alpha 7 nicotinic receptor agonist was choline, applied at a sub-maximal concentration of 100 μM. In a further setting of the present invention the compounds were applied prior to the alpha 7 nicotinic receptor agonist, in a particular 10 minutes prior to the agonist.
A control response to choline was calculated on each plate from the difference in peak in fluorescence in wells receiving either choline or assay buffer alone. Compounds of the present invention were tested at a concentration range from 0.01 μM to 30 μM. Compounds were considered to have an interesting activity when they potentiated the choline signal at least with 200% when tested at a concentration of 30 μM (the efficacy of 100 μM choline was defined as 100% in the absence of a PAM). An EC50 (or pEC50) was determined as a concentration relating to half the maximal effect, when a clear sigmoidal curve with top plateau was obtained.

T1 sequence (P36544 23-502): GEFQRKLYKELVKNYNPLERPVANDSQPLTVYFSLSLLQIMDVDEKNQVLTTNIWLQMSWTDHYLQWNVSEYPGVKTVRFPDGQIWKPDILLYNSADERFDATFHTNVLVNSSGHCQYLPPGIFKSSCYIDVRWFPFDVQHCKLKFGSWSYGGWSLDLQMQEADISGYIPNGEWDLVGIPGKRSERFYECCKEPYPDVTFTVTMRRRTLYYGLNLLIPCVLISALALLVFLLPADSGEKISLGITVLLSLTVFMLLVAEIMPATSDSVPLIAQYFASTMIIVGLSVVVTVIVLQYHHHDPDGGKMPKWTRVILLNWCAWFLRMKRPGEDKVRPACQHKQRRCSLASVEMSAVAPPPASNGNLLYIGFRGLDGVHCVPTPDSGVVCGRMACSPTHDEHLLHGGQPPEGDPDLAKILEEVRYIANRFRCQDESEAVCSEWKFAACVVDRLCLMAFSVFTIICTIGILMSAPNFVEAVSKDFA

Q: For `Cc1cc(-c2sc(N3CC(C)OC(C)C3)nc2CNC(=O)CC2CC2)cc(C)n1` (racemic) [Compound 55, N-[[2-[2,6-dimethyl-4-morpholinyl]-5-(2,6-dimethyl-4-pyridinyl)-4-thiazolyl]methyl]-cyclopropaneacetamide], which EC50 is on record?
A: 794 nM

Q: For `Cc1cc(-c2sc(N3CC(C)OC(C)C3)nc2CNC(=O)c2ccc(F)cc2C)cc(C)n1` (racemic) [Compound 56, N-[[2-[2,6-dimethyl-4-morpholinyl]-5-(2,6-dimethyl-4-pyridinyl)-4-thiazolyl]methyl]-4-fluoro-2-methyl-benzamide], which EC50 is on record?
A: 234 nM

Q: How did the Emax turn out when `Cc1cc(-c2sc(N3CC(C)OC(C)C3)nc2CNC(=O)C2CCC2)cc(C)n1` (racemic) [Compound 57, N-[[2-[2,6-dimethyl-4-morpholinyl]-5-(2,6-dimethyl-4-pyridinyl)-4-thiazolyl]methyl]-cyclobutanecarboxamide] was run?
A: 783%

Q: And the EC50?
A: 692 nM

Q: How did the EC50 turn out when `CCCC(=O)NCc1nc(N2CC(C)OC(C)C2)sc1-c1cc(C)nc(C)c1` (racemic) [Compound 61, N-[[2-[2,6-dimethyl-4-morpholinyl]-5-(2,6-dimethyl-4-pyridinyl)-4-thiazolyl]methyl]-butanamide] was run?
A: 977 nM

Q: Which EC50 does the source give for `Cc1cc(-c2sc(N3CC(C)OC(C)C3)nc2CNC(=O)c2conc2C)cc(C)n1` (racemic) [Compound 68, N-[[2-[2,6-dimethyl-4-morpholinyl]-5-(2,6-dimethyl-4-pyridinyl)-4-thiazolyl]methyl]-3-methyl-4-isoxazolecarboxamide] here?
A: 912 nM

Q: For `Cc1cc(-c2sc(N3C[C@@H](C)O[C@@H](C)C3)nc2CNC(=O)c2ccccc2F)cc(C)n1` [Compound 6, N-[[2-[(2R,6S)-2,6-dimethyl-4-morpholinyl]-5-(2,6-dimethyl-4-pyridinyl)-4-thiazolyl]methyl]-2-fluoro-benzamide], which Emax is on record?
A: 313%

Q: Which Emax does the source give for `Cc1cc(-c2sc(N3C[C@@H](C)O[C@@H](C)C3)nc2CNC(=O)C2CCCC2)cc(C)n1` [Compound 16, N-[[2-[(2R,6S)-2,6-dimethyl-4-morpholinyl]-5-(2,6-dimethyl-4-pyridinyl)-4-thiazolyl]methyl]-cyclopentanecarboxamide] here?
A: 651%

Q: What about the EC50 of the same compound?
A: 22.4 nM

Q: `Cc1cc(-c2sc(N3C[C@@H](C)O[C@@H](C)C3)nc2CNC(=O)c2nc(C)oc2C(F)(F)F)cc(C)n1` [Compound 20, N-[[2-[(2R,6S)-2,6-dimethyl-4-morpholinyl]-5-(2,6-dimethyl-4-pyridinyl)-4-thiazolyl]methyl]-2-methyl-5-(trifluoromethyl)-4-oxazolecarboxamide] was tested. Which Emax did it give?
A: 253%

Q: And the EC50?
A: 1740 nM

Q: Which results are given for `Cc1ccc(C(=O)NCc2nc(N3C[C@@H](C)O[C@@H](C)C3)sc2-c2cc(C)nc(C)c2)c(C)c1` [Compound 21, N-[[2-[(2R,6S)-2,6-dimethyl-4-morpholinyl]-5-(2,6-dimethyl-4-pyridinyl)-4-thiazolyl]methyl]-2,4-dimethyl-benzamide]?
A: Emax: 572%; EC50: 72.4 nM

Q: Which results are given for `Cc1cc(-c2sc(N3C[C@@H](C)O[C@@H](C)C3)nc2CNC(=O)c2ccc(Cl)cc2C)cc(C)n1` [Compound 22, 4-chloro-N-[[2-[(2R,6S)-2,6-dimethyl-4-morpholinyl]-5-(2,6-dimethyl-4-pyridinyl)-4-thiazolyl]methyl]-2-methyl-benzamide]?
A: Emax: 484%; EC50: 20 nM

Q: How did the Emax turn out when `Cc1cc(-c2sc(N3C[C@@H](C)O[C@@H](C)C3)nc2CNC(=O)c2cccc(Cl)c2Cl)cc(C)n1` [Compound 26, 2,3-dichloro-N-[[2-[(2R,6S)-2,6-dimethyl-4-morpholinyl]-5-(2,6-dimethyl-4-pyridinyl)-4-thiazolyl]methyl]-benzamide] was run?
A: 631%

Q: What about the EC50 of the same compound?
A: 141 nM

Q: For `Cc1cc(-c2sc(N3C[C@@H](C)O[C@@H](C)C3)nc2CNC(=O)c2ccccc2)cc(C)n1` [Compound 27, N-[[2-[(2R,6S)-2,6-dimethyl-4-morpholinyl]-5-(2,6-dimethyl-4-pyridinyl)-4-thiazolyl]methyl]-benzamide], which Emax is on record?
A: 403%

Q: What about the EC50 of the same compound?
A: 525 nM
